# Legend:
# mammary tumors = experiment: DMBA-induced rat mammary tumor model, tumor volume and weight; type: in vivo, Sprague-Dawley rat; conditions: 20 days
# Experimental: Female virgin Sprague-Dawley rats were obtained from Harlan (Houston) and were allowed to acclimate for 10 days, allowed access to food and water ad libitum, and maintained on a 12 h light/dark schedule. Mammary tumors were induced in 50±3 day old-rats by administering a single gavage dose of 20 mg DMBA in 0.5 ml corn oil. […] Tumor sizes were measured with calipers, and volumes were calculated by formula (length×width×depth)/6π and are expressed as percent control. […] All tumors were removed, weighed, and sectioned. One portion was frozen in liquid nitrogen for PCR analysis; one portion was placed in 10% formalin for histopathological analysis; and the majority was immediately homogenized for the preparation of microsomal and cytosolic fractions. Livers were perfused and weighed, and cytosol and microsomes were prepared as previously described.
# [1] = system: hepatic CYP1A1-dependent EROD activity; experiment: Hepatic EROD activity in DMBA-treated rats; conditions: 0.4 mg/kg/day each
# Experimental: (§1) Female virgin Sprague-Dawley rats were obtained from Harlan (Houston) and were allowed to acclimate for 10 days, allowed access to food and water ad libitum, and maintained on a 12 h light/dark schedule. Mammary tumors were induced in 50±3 day old-rats by administering a single gavage dose of 20 mg DMBA in 0.5 ml corn oil. […] Tumor sizes were measured with calipers, and volumes were calculated by formula (length×width×depth)/6π and are expressed as percent control. One week after their last injection, rats were euthanized by asphyxiation. All tumors were removed, weighed, and sectioned. One portion was frozen in liquid nitrogen for PCR analysis; one portion was placed in 10% formalin for histopathological analysis; and the majority was immediately homogenized for the preparation of microsomal and cytosolic fractions. Livers were perfused and weighed, and cytosol and microsomes were prepared as previously described.
# [2] = Body and organ weights in DMBA-treated rats
# Experimental: as §1
# femurs = experiment: Bone effects in ovariectomized rats (femur weight and length); type: in vivo, Sprague-Dawley rat; conditions: tamoxifen 0.4, 6-MCDF 0.8 mg/kg/day oral, 20 days
# Experimental: The ovariectomized rat is used as a model for osteoporosis.
# Rats were euthanized on day 21. After uteri were excised and processed, both left and right femurs were excised and the length measured with calipers. […] Wet weight was measured after residual connective tissue was stripped away. Dry weight was measured after the bones were dried for 12 ours at 130° C.
# uterus [3] = experiment: Uterine wet weight in ovariectomized rats (Example 4); type: in vivo, Sprague-Dawley rat; conditions: 0.4 mg/kg/day each oral, 20 days
# From the text: (§3) Methods: Rats were ovariectomized at 97 days of age, and treatments began at 117 days of age. […] Rats were euthanized on day 21.
# uterine peroxidase [4] = experiment: Uterine peroxidase assay in ovariectomized rats (Example 4); type: in vivo, Sprague-Dawley rat; conditions: 0.4 mg/kg/day each oral, 20 days
# From the text: (§2) Rats were euthanized on day 21.
# uterine cytosolic PR = experiment: Uterine cytosolic PR levels in ovariectomized rats (Example 4); type: in vivo, Sprague-Dawley rat; conditions: 0.4 mg/kg/day each oral, 20 days
# From the text: as §2
# uterus [5] = experiment: Uterine wet weight in ovariectomized rats (Example 6, Table 6); type: in vivo, Sprague-Dawley rat; conditions: tamoxifen 0.4, 6-MCDF 0.8 mg/kg/day oral, 20 days
# From the text: as §2
# uterine peroxidase [6] = experiment: Uterine peroxidase activity in ovariectomized rats (Example 6, Table 6); type: in vivo, Sprague-Dawley rat; conditions: tamoxifen 0.4, 6-MCDF 0.8 mg/kg/day oral, 20 days
# From the text: as §2
# [7] = system: uterine progesterone receptor; experiment: Uterine progesterone receptor in ovariectomized rats (Example 6, Table 6); type: in vivo, Sprague-Dawley rat; conditions: tamoxifen 0.4, 6-MCDF 0.8 mg/kg/day oral, 20 days
# From the text: as §2
# Ah receptor = conditions: result in words; cited from earlier work
# ER = conditions: 21 to 25 day-old female Sprague-Dawley rat uterus; cited from earlier work
# PR = conditions: 21 to 25 day-old female Sprague-Dawley rat uterus; cited from earlier work
# rat uterus = conditions: cited from earlier work
# mammary tumor = conditions: cited from earlier work
# [8] = cited from earlier work
# CYP1A1 [9] = conditions: cited from earlier work
# liver = conditions: result in words; cited from earlier work
# CYP1A1 [10] = conditions: result in words; cited from earlier work
# [11] = Body and organ weights (Examples 4 and 5)
# Experimental: as §3
# For the control vehicle and the MCDF vehicle ethanol was added (5% v/v) and then evaporated away.
# [12] = Body and organ weights (Example 6, Table 7)
# Experimental: For Table 7 and FIGS. 3 and 3B, exact aged virgin female Sprague-Dawley rats were dosed on day 55 in the afternoon with 20 mg/rat 7,12-dimethylbenz[a]anthacene in a volume of 0.5 ml/rat corn oil (rats weigh approximately 165 g, resulting in 120 mg/kg DMBA and 3 ml/kg corn oil).
# [13] = each drug 0.4 mg/kg/day by gavage, DMBA rats
smiles,measurement,setting,value
"Cc1cc(Cl)cc2c1oc1cc(Cl)cc(Cl)c12 [6-MCDF, 6-methyl-1,3,8-trichlorodibenzofuran]",Tumor Weight,"mammary tumors; 0.4 mg/kg/day each, control 3.82 ± 1.18",1.68 ± 0.53 g
same,Tumor Wt (% Control),"mammary tumors; 0.4 mg/kg/day each, control 100 ± 27.7",43.9 ± 12.8 % Control
same,Final Tumor Volume (% Control),"mammary tumors; 0.4 mg/kg/day each, control 100 ± 31.5",33.6 ± 11.2 % Control
same,Final Tumor Volume,"mammary tumors; 0.4 mg/kg/day each, control 2734 ± 956",918 ± 305 mm^3
same,% Inhibition tumor volume,mammary tumors; [13],66.4%
same,% Inhibition tumor weight,mammary tumors; [13],NS decrease
same,EROD activity,"[1]; 20 days, control 118 ± 40",140 ± 32 pmol/mg/min
same,induction of hepatic EROD activity,[1]; result in words,did not induce
same,Uterine Wt.,"[2]; 0.4 mg/kg/day each, 20 days, control 0.212 ± 0.017",0.230 ± 0.037 % BW
same,Spleen Wt.,"[2]; 0.4 mg/kg/day each, 20 days, control 0.257 ± .022",0.255 ± 0.017 % BW
same,Kidney weight,"[2]; 0.4 mg/kg/day each, 20 days, control 0.349 ± 0.007",0.361 ± 0.016 % BW
same,Liver weight,"[2]; 0.4 mg/kg/day each, 20 days, control 3.13 ± 0.12",3.49 ± 0.16 % BW
same,Final Body Weight,"[2]; 0.4 mg/kg/day each, 20 days, control 250 ± 5",247 ± 4 g
same,Heart weight,"[2]; rat, in vivo",0.405 ± 0.10 % BW
same,Dry bone weight,femurs; control 0.180 ± 0.005,0.183 ± 0.003 % body weight
same,Wet bone weight,femurs; control 0.347 ± 0.009,0.341 ± 0.008 % body weight
same,Bone length index,femurs; control 12.1 ± 0.4,12.17 ± 0.3 mm/body weight × 100
same,Uterine Wet Weight (% body wt),uterus [3]; control 0.045 ± 0.002,0.060 ± 0.006 % body wt
same,Uterine Wet Weight,uterus [3]; control 0.131 ± 0.006,0.180 ± 0.019 g
same,Uterine Peroxidase Assay (Abs/g uterus),uterine peroxidase [4]; per g uterus,1.14 ± 0.02 Fold Increase over Control
same,Uterine Peroxidase Assay (Abs/mg protein),uterine peroxidase [4]; per mg protein,1.05 ± 0.02 Fold Increase over Control
same,Uterine Peroxidase Assay (Abs/uterus),uterine peroxidase [4]; per uterus,1.56 ± 0.03 Fold Increase over Control
same,Uterine cytosolic PR levels (fmol/mg protein),uterine cytosolic PR; control 308 ± 142,338 ± 31 fmol/mg protein
same,Uterine cytosolic PR levels (fmol/uterus),uterine cytosolic PR; control 1100 ± 508,1925 ± 177 fmol/uterus
same,Uterine cytosolic PR levels (fmol/g uterus),uterine cytosolic PR; control 8368 ± 3868,10693 ± 986 fmol/g uterus
same,Uterine wet weight (% body weight),uterus [5]; control 0.0583 ± 0.0055,0.0454 % body weight
same,Uterine wet weight,uterus [5]; control 0.171 ± 0.15,0.131 g
same,Uterine Peroxidase Activity (Absorbance/g uterus),uterine peroxidase [6]; per g uterus,0.88 ± 0.01 Fold Increase over control
same,Uterine Peroxidase Activity (Absorbance/mg protein),uterine peroxidase [6]; per mg protein,0.99 ± 0.01 Fold Increase over control
same,Uterine Peroxidase Activity (Absorbance/uterus),uterine peroxidase [6]; per uterus,0.57 ± 0.01 Fold Increase over control
same,Uterine Progesterone Receptor (fmol/mg protein),[7]; control 198 ± 15,152.9 ± 35 fmol/mg protein
same,Uterine Progesterone Receptor (fmol/uterus),[7]; control 765 ± 69,441.5 ± 100 fmol/uterus
same,Uterine Progesterone Receptor (fmol/g uterus),[7]; control 4462 ± 343,3985 ± 907 fmol/g uterus
same,binding to the Ah receptor,Ah receptor,bound to the Ah receptor
same,nuclear and cytosolic ER binding,ER,dose-dependent decrease
same,nuclear and cytosolic progesterone receptor (PR) binding,PR,dose-dependent decrease
same,"E2-induced hypertrophy, peroxidase activity, cytosolic ER and PR binding, EGF receptor and c-fos mRNA levels",rat uterus; rat uterus,inhibited
same,effect on TCDD-induced antiestrogenic activity,rat uterus; rat uterus,did not inhibit
same,antiestrogenicity in the rat uterus,rat uterus; result in words,antiestrogen in the rat uterus
same,growth inhibition,mammary tumor; 5 mg/kg/wk,> 50%
same,mammary tumor growth,"mammary tumor; 5, 10 or 25 mg/kg/wk, result in words",significantly inhibited
same,effect on TCDD induced toxic responses,[8]; co-treatment with TCDD,inhibiter TCDD induced toxic responses
same,toxicity,[8]; result in words,minimal toxicity
same,potency as inducer of hepatic CYP1A1 relative to TCDD (times less potent),"CYP1A1 [9]; less potent than TCDD, same animals","> 157,000 times"
same,induction of CYP1A1,CYP1A1 [9]; result in words,weak inducer of CYP1A1
same,liver morphology,liver,not accompanied by any significant changes
same,liver/body weight ratios,liver,not accompanied by any significant changes
same,induction of hepatic CYP1A1-dependent activity,CYP1A1 [10],not accompanied by any significant changes
same,splenic wet weight,"[11]; 0.4 mg/kg/day oral, 20 days, ovariectomized rats, result in words",slight but significant increase
same,Rat weight at start of treatments,"[11]; Table 5, baseline, control 273.1 ± 8.1",274.7 ± 7.0 g
same,Spleen wet weight (% body wt),"[11]; Table 5, control 0.247 ± 0.007",0.298 ± 0.015 % body wt
same,kidney weight (% body wt),"[11]; Table 5, control 0.318 ± 0.010",0.332 ± .004 % body wt
same,Heart weight (% body wt),"[11]; Table 5, control 0.319 ± 0.006",0.344 ± 0.014 % body wt
same,Spleen wet weight,"[11]; Table 5, control 0.72O ± 0.012",0.887 ± 0.043 g
same,Kidney weight,"[11]; Table 5, control 0.933 ± 0.038",0.991 ± 0.026 g
same,Heart weight,"[11]; Table 5, control 0.935 ± 0.039",1.024 ± 0.037 g
same,Liver weight (% body wt),"[11]; Table 5, control 4.06 ± 0.23",4.37 ± 0.26 % body wt
same,Liver weight,"[11]; Table 5, control 11.88 ± 0.78",13.04 ± 0.87 g
same,Rat weight prior to euthanasia,"[11]; Table 5, control 293.2 ± 10.9",298.3 ± 5.0 g
same,Rat weight at start of treatments,"[12]; Table 7, baseline, control 255 ± 3",257 ± 4 g
same,Spleen weight (% body weight),"[12]; Table 7, control 0.289 ± 0.018",0.265 ± 0.014 % body weight
same,Kidney weight (% body weight),"[12]; Table 7, control 0.334 ± 0.010",0.352 ± 0.015 % body weight
same,Heart weight (% body weight),"[12]; Table 7, control 0.360 ± 0.010",0.356 ± 0.012 % body weight
same,Rat weight prior to euthanasia,"[12]; Table 7, control 295 ± 11",289 ± 7 g

# Source: patent US6136845A (The Texas A&M University System, priority 1998, dated 2000)
